Measured values: paper PMC6829278, “Suitability of GnRH Receptors for Targeted Photodynamic Therapy in Head and Neck Cancers” (International Journal of Molecular Sciences, 2019)
Like-named read-outs stand apart in the source and are kept apart here. Square brackets hold non-standard residues; d marks the D form. Peptide text beside a SMILES is read from it. * marks the point of attachment. X1 = C=CC1=C(C)c2cc3[nH]c(cc4nc(cc5[nH]c(cc1n2)c(C)c5CCC(=O)O)C(CCC(=O)*)=C4C)c(C)c3C=C; pGlu = O=C1CC[C@@H](C(=O)O)N1; Butyryl = CCCC(=O)*

Experiments:
[1] = target: T1, GnRH-R (membranes of human pituitary) (Homo sapiens, UniProt P30968); test: Radioligand binding (ligand competition) assay, displacement of [125I]-[6D-Trp]-GnRH-I, human pituitary membranes; settings: for Inhibition of the binding of [125I]-[6D-Trp]-GnRH-I: at a concentration of 10^-6 M, tissue (human pituitary / human prostate cancer) not specified
T1 construct: Tissue samples derived by autopsy from normal human pituitary (anterior lobe); from tissue; host or cells: normal human pituitary (anterior lobe), autopsy; membrane homogenates
T1 sequence (P30968 1-328): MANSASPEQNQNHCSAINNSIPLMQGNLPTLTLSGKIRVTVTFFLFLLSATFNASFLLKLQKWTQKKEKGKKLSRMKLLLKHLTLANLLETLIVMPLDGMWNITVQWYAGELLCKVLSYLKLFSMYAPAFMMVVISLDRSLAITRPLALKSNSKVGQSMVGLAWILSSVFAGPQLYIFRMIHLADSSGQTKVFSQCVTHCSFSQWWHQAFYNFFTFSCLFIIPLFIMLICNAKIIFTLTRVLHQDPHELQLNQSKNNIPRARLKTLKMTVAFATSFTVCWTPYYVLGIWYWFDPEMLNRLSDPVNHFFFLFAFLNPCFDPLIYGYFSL
Description: (§1) The binding potency of the GnRH analogs and the GnRH-PpIX conjugates to human pituitary and human prostate cancer cells, that express GnRH-R in high concentration, was investigated by ligand competition assay.
(§2) Tissue samples derived by autopsy from normal human pituitary (anterior lobe) and human prostate cancer cells were obtained from a patient at the time of initial surgical treatment. The collection and the use of these specimens for our studies are approved by the local Institutional Ethics Committee. […] The assay was performed as described earlier. […] At the end of the incubation, 125 µL aliquots of suspension were transferred onto the top of 1 mL of ice-cold binding buffer containing 1.5% BSA in microcentrifuge tubes. The tubes were centrifuged at 12,000× g for 3 min at 4 °C. Supernatants were aspirated and the pellet was counted in a gamma counter. Protein concentration was determined by the method of Bradford, using a Bio-Rad protein assay kit (Bio-Rad Laboratories, Hercules, CA, USA). The LIGAND-PC computerized curve-fitting program of Munson and Rodbard was used to determine the receptor binding characteristics and IC50 values.

[2] = target: T2, GnRH-R (membranes of human prostate cancer cells) (Homo sapiens, UniProt P30968); test: Radioligand binding (ligand competition) assay, displacement of [125I]-[6D-Trp]-GnRH-I, human prostate cancer membranes
T2 construct: human prostate cancer cells were obtained from a patient at the time of initial surgical treatment; from tissue; host or cells: human prostate cancer specimen from a patient at surgery; membrane homogenates
T2 sequence (P30968 1-328): T1 sequence (P30968 1-328)
Description: as §1, §2

[3] = system: Detroit-562 human pharyngeal carcinoma cells; test: cells; settings: for Effect of incubation time on cell viability inhibition: incubation 1, 3 or 5 h
Description: (compound 5) was used for the optimization of the conditions of the cell viability inhibition assays. First, the irradiation time was optimized. Detroit-562 pharyngeal cells were treated with the peptide-PpIX conjugate for 5 h, the unbound conjugate was washed out, and then the cells were irradiated for 0, 2, 10, or 30 min followed by 72 h of further incubation (Figure 6A).
Afterwards, the incubation time was optimized.
The cell viability inhibition of the synthesized GnRH-PpIX conjugates was measured on Detroit-562 cells using the previously optimized conditions (5 h treatment, 10 min irradiation).
Cells were seeded to 96-well plates (6·× 10^3 cells/well) 48 h prior to the treatment. The cells were treated with the peptides (10 μM) and conjugates (0.025–10 μM) in darkness. Stock solutions of the compounds were prepared in DMSO (5 mM) and all dilutions were made to contain 0.2% DMSO final concentration. The control wells were treated with medium or 0.2% DMSO containing medium. After 1, 3, or 5 h, the cells were washed once with medium, irradiated for 0, 2, 10, or 30 min and incubated for a further 72 h. The irradiation was performed by an Oriel type 250 W Quartz Tungsten Halogen lamp (Newport Corporation, CA, USA) with a 550 nm emission maximum. The light was filtered to exclude UV and IR components. The fluence rate was determined by a 10 A-P Nova laser power/energy monitor (Ophir, Optronix, Jerusalem, Israel) using the pyro-electric detector. Then, the MTT-test was performed according to the manufacturer’s instructions. Each point was measured using 3 parallels and each experiment was repeated twice.

[4] = membranes of human pituitary, read-out: IC50 Values, inhibition of [125I]-[6D-Trp]-GnRH-I binding, Human Pituitary
[5] = membranes of human prostate cancer cells, read-out: IC50 Values, inhibition of [125I]-[6D-Trp]-GnRH-I binding, Human Prostate Cancer
[6] = Detroit-562, 0.1 µM, 5 h treatment, 10 min irradiation
[7] = Detroit-562, 10 min irradiation

Compound | IC50 [1, 4] [nM] | IC50 [2, 5] [nM] | Inhibition of the binding of [125I]-[6D-Trp]-GnRH-I [1] | further results
CCCC(=O)NCCCC[C@H](NC(=O)[C@H](Cc1c[nH]c2ccccc12)NC(=O)[C@H](Cc1c[nH]cn1)NC(=O)[C@@H]1CCC(=O)N1)C(=O)N[C@@H](Cc1c[nH]cn1)C(=O)N[C@H](CCCCN)C(=O)N[C@@H](Cc1c[nH]c2ccccc12)C(=O)N[C@@H](Cc1ccc(O)cc1)C(=O)N1CCC[C@H]1C(=O)NCC(N)=O [compound 3, GnRH-II[^4Lys(Bu), ^6D-Lys]] ([pGlu]HWK(Butyryl)H[dK]WYPG-NH2) | 5.56 ± 1.07 | 4.65 ± 0.31 |  | 
CCCC(=O)NCCCC[C@H](NC(=O)[C@H](Cc1c[nH]c2ccccc12)NC(=O)[C@H](Cc1c[nH]cn1)NC(=O)[C@@H]1CCC(=O)N1)C(=O)N[C@@H](Cc1ccc(O)cc1)C(=O)N[C@H](CCCCN)C(=O)N[C@@H](CC(C)C)C(=O)N[C@@H](CCCNC(=N)N)C(=O)N1CCC[C@H]1C(=O)NCC(N)=O [compound 2, GnRH-I[^4Lys(Bu), ^6D-Lys]] ([pGlu]HWK(Butyryl)Y[dK]LRPG-NH2) | 9.7 ± 1.07 | 8.61 ± 1.08 |  | 
IGF-I: peptide used as binding specificity control [reference compound] |  |  | did not inhibit | 
glucagon: peptide used as binding specificity control [reference compound] |  |  | did not inhibit | 
C=CC1=C(C)c2cc3[nH]c(cc4nc(cc5[nH]c(cc1n2)c(C)c5CCC(=O)O)C(CCC(=O)NCCCC[C@H](NC(=O)[C@H](Cc1c[nH]c2ccccc12)NC(=O)[C@H](CC(=O)OC)NC(=O)[C@H](Cc1c[nH]cn1)NC(=O)[C@H](CCCCNC(=O)CCC)NC(=O)[C@H](Cc1c[nH]c2ccccc12)NC(=O)[C@H](Cc1c[nH]cn1)NC(=O)[C@@H]1CCC(=O)N1)C(=O)N1CCC[C@H]1C(=O)NCC(N)=O)=C4C)c(C)c3C=C [compound 8, GnRH-III[^4Lys(Bu), ^6Asp(OMe), ^8Lys(PpIX)]] |  |  |  | IC50 [1]: 289 ± 17.3 nM; Cell viability inhibition [3, 6]: 65–70%; IC50 ([3]; read-out: Calculated IC50 values, cell viability inhibition, Detroit-562 cells, 5 h incubation, 10 min irradiation, further 72 h, MTT): 81.8 ± 12.6 nM; IC50 [2]: 341 ± 21.1 nM
C=CC1=C(C)c2cc3[nH]c(cc4nc(cc5[nH]c(cc1n2)c(C)c5CCC(=O)O)C(CCC(=O)NCCCC[C@@H](NC(=O)[C@H](Cc1c[nH]cn1)NC(=O)[C@H](CCCCNC(=O)CCC)NC(=O)[C@H](Cc1c[nH]c2ccccc12)NC(=O)[C@H](Cc1c[nH]cn1)NC(=O)[C@@H]1CCC(=O)N1)C(=O)N[C@@H](Cc1c[nH]c2ccccc12)C(=O)N[C@@H](Cc1ccc(O)cc1)C(=O)N1CCC[C@H]1C(=O)NCC(N)=O)=C4C)c(C)c3C=C [compound 7, GnRH-II[^4Lys(Bu), ^6D-Lys(PpIX)]] ([pGlu]HWK(Butyryl)H[dK](X1)WYPG-NH2) | 79.4 ± 8.88 | 84.5 ± 10.3 |  | IC50 ([3]; 5 h): 71.1 ± 6.2 nM; Cell viability inhibition [3, 6]: > 90%
C=CC1=C(C)c2cc3[nH]c(cc4nc(cc5[nH]c(cc1n2)c(C)c5CCC(=O)O)C(CCC(=O)NCCCC[C@@H](NC(=O)[C@H](Cc1ccc(O)cc1)NC(=O)[C@H](CO)NC(=O)[C@H](Cc1c[nH]c2ccccc12)NC(=O)[C@H](Cc1c[nH]cn1)NC(=O)[C@@H]1CCC(=O)N1)C(=O)N[C@@H](CC(C)C)C(=O)N[C@@H](CCCNC(=N)N)C(=O)N1CCC[C@H]1C(=O)NCC(N)=O)=C4C)c(C)c3C=C [compound 5, GnRH-I[^6D-Lys(PpIX)]] | 36.3 ± 3.17 | 42.7 ± 7.04 |  | IC50 ([3]; 5 h): 62.3 ± 5.9 nM; Cell viability inhibition [3, 6]: > 90%; Cell viability inhibition (irradiation time optimization) [3, 6]: ~ 98%; Cell viability inhibition (irradiation time optimization) ([3]; Detroit-562, 0.1 µM, 5 h treatment, 30 min irradiation): ~ 98%; Toxicity in the absence of light ([3]; Detroit-562, 5 h treatment, 0 min irradiation, 72 h further incubation): non-toxic; Cell viability inhibition ([3]; Detroit-562, 5 h treatment, 2 min irradiation, sub-micromolar concentration): 50%; Effect of incubation time on cell viability inhibition [3, 7]: higher activity
CCCC(=O)NCCCC[C@H](NC(=O)[C@H](Cc1c[nH]c2ccccc12)NC(=O)[C@H](Cc1c[nH]cn1)NC(=O)[C@@H]1CCC(=O)N1)C(=O)N[C@@H](Cc1c[nH]cn1)C(=O)N[C@@H](CC(=O)OC)C(=O)N[C@@H](Cc1c[nH]c2ccccc12)C(=O)N[C@@H](CCCCN)C(=O)N1CCC[C@H]1C(=O)NCC(N)=O [compound 4, GnRH-III[^4Lys(Bu), ^6Asp(OMe)]] | 7.27 ± 0.92 | 6.56 ± 1.11 |  | 
C=CC1=C(C)c2cc3[nH]c(cc4nc(cc5[nH]c(cc1n2)c(C)c5CCC(=O)O)C(CCC(=O)NCCCC[C@@H](NC(=O)[C@H](Cc1ccc(O)cc1)NC(=O)[C@H](CCCCNC(=O)CCC)NC(=O)[C@H](Cc1c[nH]c2ccccc12)NC(=O)[C@H](Cc1c[nH]cn1)NC(=O)[C@@H]1CCC(=O)N1)C(=O)N[C@@H](CC(C)C)C(=O)N[C@@H](CCCNC(=N)N)C(=O)N1CCC[C@H]1C(=O)NCC(N)=O)=C4C)c(C)c3C=C [compound 6, GnRH-I[^4Lys(Bu), ^6D-Lys(PpIX)]] ([pGlu]HWK(Butyryl)Y[dK](X1)LRPG-NH2) | 42.3 ± 4.27 | 41.8 ± 5.74 |  | IC50 ([3]; 5 h): 89.8 ± 19.4 nM; Cell viability inhibition [3, 6]: 65–70%
VIP: peptide used as binding specificity control [reference compound] |  |  | did not inhibit | 
somatostatin-14: peptide structurally and/or functionally unrelated to GnRH, binding specificity control [reference compound] |  |  | did not inhibit | 
C=CC1=C(C)c2cc3[nH]c(cc4nc(cc5[nH]c(cc1n2)c(C)c5CCC(=O)O)C(CCC(=O)O)=C4C)c(C)c3C=C [PpIX, Protoporphyrin IX, reference compound] |  |  | did not inhibit | Cell viability inhibition ([3]; Detroit-562, 0.25 µM, 5 h treatment, 10 min irradiation): ~ 50%; Effect of incubation time on cell viability inhibition [3, 7]: no significant difference; IC50 ([3]; Homo sapiens, Detroit 562, light or radiation study, read-out: Calculated IC50 values, cell viability inhibition): 209 ± 120 nM
EGF: peptide used as binding specificity control [reference compound] |  |  | did not inhibit | 
hGHRH: peptide used as binding specificity control [reference compound] |  |  | did not inhibit | 
